This is an account of results in patent US20230406865A1, “CRYSTAL FORM OF FREE BASE OF INHIBITOR CONTAINING BICYCLIC RING DERIVATIVE AND PREPARATION METHOD AND APPLICATION OF CRYSTAL FORM” (SHANGHAI HANSOH BIOMEDICAL CO., LTD., priority 2020, published 2023).

The target in one data set is T1, RET kinase (Homo sapiens, UniProt P07949).
T1 construct: purchased Carna 08-159
The experiment in a line: HTRF kinase activity inhibition, RET wild-type. In kind it is biochemical. The note with it: ATP at Km. The text has this:
2.2 Experimental Reagents: • RET enzyme was purchased from Carna Company, and the article number was 08-159; • RET M918T enzyme was purchased from Carna Company, and the article number was 08-508; • KIF5B-RET was purchased from SignalChem Company, the article number was R02-19FG-05; • CCDC6-RET was purchased from SignalChem Company, the article number was R02-19BG-05; • RET V804M enzyme was purchased from Thermofisher Company, and the article number was PV6223; • RET V804L enzyme was purchased from Thermofisher Company, and the article number was PV4397; • HTRF KinEASE-TK kit was purchased from Cisbio Company, and the article number was 62TK0PEC; • ATP was purchased from Thermofisher Company, and the article number was PV3227; • 384-well plate was purchased from PerkinElmer Company, and the article number was 6007290.
In this experiment, a homogeneous time-resolved fluorescence (HTRF) method was used for the detection of compounds on RET kinase activity.
In general terms: TR-FRET usually uses a lanthanide donor and a delayed reading to cut background.

The target in a further data set is T2, KDR kinase (Homo sapiens, UniProt P35968).
T2 construct: purchased Carna 08-191
The experiment in a line: HTRF kinase activity inhibition, KDR. It is filed as biochemical. The note with it: for pIC50: HTRF, ATP at Km; for Ratio (KDR/RET): KDR IC50 / RET IC50. The text has this: 2.2 Experimental Reagents: • KDR kinase was purchased from Carna Company, and the article number was 08-191; • HTRF KinEASE-TK kit was purchased from Cisbio Company, and the article number was 62TK0PEC; • ATP was purchased from Thermofisher Company, and the article number was PV3227; • 384-well plate was purchased from PerkinElmer Company, and the article number was 6007290.
In this experiment, the homogeneous time-resolved fluorescence (HTRF) method was used for the detection of compounds on KDR kinase activity.

Another data set addresses T3, Ba/F3 KIF5B-RET cells (Homo sapiens, UniProt P07949).
T3 construct: fused on or other part: P33176 (Kinesin-1 heavy chain)
The experiment in a line: Inhibition of proliferation of Ba/F3 KIF5B-RET cells (CellTiter-Glo). The note with it: 72 to 144 hours. In kind it is cell-based. As to the method: When Ba/F3 KIF5B-RET cells were cultured to the appropriate cell density, cells were collected, and the cells were adjusted to the appropriate cell concentration using complete medium, and the cell suspension was spread in a 96-well plate, 90 μL per well, and placed in the wall of a 37° C., 5% CO2 incubator overnight; compound solutions of different concentrations were prepared using DMSO and culture medium; a solvent control was set, and the compound solution was added to a 96-well plate with […] at 37° C. in a 5% CO2 incubator for 72 to 144 hours, CellTiter-Glo solution was added thereto and mixed well by shaking, incubated for 10 minutes in the dark, and read by BioTek Synergy H1 microplate reader.
The IC50 values were obtained by using the luminescence signal values to calculate the inhibition rate, the concentrations and the inhibition rates were fitted to a nonlinear regression curve using Graphpad Prism software.
(ATP-based viability assays read luminescence as a measure of living cells.)

Data set [1] in a line: Balb/C mouse pharmacokinetics, oral 5 mg/kg. The note with it: male, p.o. 5 mg/kg, plasma; for MRT: read-out: Average residence time MRT; for Cmax: read-out: Blood concentration Cmax; for AUC(0-t): read-out: Curve area AUC0-t; for AUC(0-inf): read-out: Curve area AUC0-∞; for half-life: read-out: Half-life t1/2 (converted); for Tmax: read-out: Peak time tmax. In kind it is in vivo, Balb/C mice. As to the method: The pharmacokinetic behavior of the following compound embodiments, administered orally at a dose of 5 mg/kg in plasma in mice, was studied using Balb/C mice as test animals.
Balb/C Mouse 6/embodiment, male, Shanghai Jiesijie Laboratory Animal Co., Ltd, Animal Production License No. (SCXK (Shanghai) 2013-0006 N0.311620400001794).
Balb/C mice, males; p.o. after overnight fasting, respectively, at a dose of 5 mg/kg, administered in a volume of 10 mL/kg.
0.5% CMC-Na (1% Tween80) was dissolved by ultrasound, and prepared into clear solution or uniform suspension.
Before and after administration, 0.1 mL of blood was collected from mice at 0, 0.5, 1, 2, 4, 6, 8 and 24 hours by orbital collection, placed in EDTA-K2 tubes, centrifuged at 6000 rpm at 4° C. for 6 minutes to separate plasma, and stored at −80° C.
2.5 Sample Handling: • 1) 40 μL of plasma sample was precipitated by adding 160 μL of acetonitrile, mixed and centrifuged at 3500×g for 5-20 minutes. • 2) 100 μL of the supernatant solution after treatment was taken to analyze the concentration of the test compound by LC/MS/MS.
2.6 Liquid Phase Analysis • Liquid phase conditions: Shimadzu LC-20AD pump • Mass spectrometry conditions: AB Sciex API 4000 mass spectrometer • Chromatographic column: phenomenex Gemiu 5 μM C18 50×4.6 mm • Mobile phase: Liquid A was 0.1% formic acid aqueous solution, liquid B was acetonitrile • Flow rate: 0.8 mL/min • Elution time: 0-4.0 minutes, the eluent was as follows:
The main pharmacokinetic parameters were calculated by WinNonlin 6.1 and the results of the mouse pharmacokinetic experiments were shown in Table 13 below.

Data set [2] relates to TT cells (MTC, RET C634W). The experiment in a line: Inhibition of proliferation of TT cells (CellTiter-Glo, 72 h). The note with it: Homo sapiens. In kind it is cell-based. As to the method:
TT cells were purchased from the cell bank of the Chinese Academy of Sciences.
When TT cells were cultured to the appropriate fusion level, TT cells were collected, and the cells were adjusted to the appropriate cell concentration using complete medium, and the cell suspension was spread in a 96-well plate, 90 μL per well, and placed to the wall of a 37° C., 5% CO2 incubator overnight; and compound solutions of different concentrations were prepared using DMSO and culture medium; and a solvent control was set, the compound solution was added to a 96-well plate, 10 μL per well, and placed to the wall of a 37° C., 5% CO2 incubator for 72 hours; CellTiter-Glo solution was added thereto and the mixture was mixed well by shaking, incubated for 10 minutes in the dark, and read by BioTek Synergy H1 microplate reader.
The IC50 values were obtained by using luminescence signal values to calculate the inhibition rate, the concentration and the inhibition rate were fitted to a nonlinear regression curve using Graphpad Prism software.

pIC50: −log10 of the molar value.

T3 sequence (P07949 whole entry, change not shown, the tested form may be a part): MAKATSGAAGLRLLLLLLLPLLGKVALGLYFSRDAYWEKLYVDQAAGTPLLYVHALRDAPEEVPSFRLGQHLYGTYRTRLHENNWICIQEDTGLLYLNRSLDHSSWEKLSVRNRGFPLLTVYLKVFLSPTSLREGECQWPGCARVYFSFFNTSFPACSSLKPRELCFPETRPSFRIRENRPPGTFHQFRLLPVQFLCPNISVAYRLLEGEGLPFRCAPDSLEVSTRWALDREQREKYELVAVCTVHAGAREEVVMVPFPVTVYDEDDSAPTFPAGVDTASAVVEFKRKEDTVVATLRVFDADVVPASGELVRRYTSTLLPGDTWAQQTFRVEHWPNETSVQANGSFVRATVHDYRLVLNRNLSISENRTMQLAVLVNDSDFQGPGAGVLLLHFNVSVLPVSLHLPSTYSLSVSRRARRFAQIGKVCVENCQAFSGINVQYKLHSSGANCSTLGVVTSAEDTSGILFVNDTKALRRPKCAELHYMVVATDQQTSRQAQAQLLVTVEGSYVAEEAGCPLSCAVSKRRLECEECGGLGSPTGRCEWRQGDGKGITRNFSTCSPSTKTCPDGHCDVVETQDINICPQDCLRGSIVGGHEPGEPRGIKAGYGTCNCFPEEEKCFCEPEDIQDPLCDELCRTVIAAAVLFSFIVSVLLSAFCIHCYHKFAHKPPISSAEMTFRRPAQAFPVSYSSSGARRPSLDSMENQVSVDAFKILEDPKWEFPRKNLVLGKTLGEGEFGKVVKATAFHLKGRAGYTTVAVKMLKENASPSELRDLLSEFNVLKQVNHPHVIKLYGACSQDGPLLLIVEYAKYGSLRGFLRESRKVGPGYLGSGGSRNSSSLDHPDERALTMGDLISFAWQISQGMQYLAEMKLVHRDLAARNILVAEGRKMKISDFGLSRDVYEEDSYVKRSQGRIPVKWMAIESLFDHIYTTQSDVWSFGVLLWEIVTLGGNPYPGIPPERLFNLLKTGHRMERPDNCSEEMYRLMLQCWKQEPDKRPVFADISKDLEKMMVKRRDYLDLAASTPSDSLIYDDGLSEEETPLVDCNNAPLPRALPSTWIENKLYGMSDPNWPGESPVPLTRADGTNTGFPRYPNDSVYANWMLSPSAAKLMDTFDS
T2 sequence (P35968 20-1356): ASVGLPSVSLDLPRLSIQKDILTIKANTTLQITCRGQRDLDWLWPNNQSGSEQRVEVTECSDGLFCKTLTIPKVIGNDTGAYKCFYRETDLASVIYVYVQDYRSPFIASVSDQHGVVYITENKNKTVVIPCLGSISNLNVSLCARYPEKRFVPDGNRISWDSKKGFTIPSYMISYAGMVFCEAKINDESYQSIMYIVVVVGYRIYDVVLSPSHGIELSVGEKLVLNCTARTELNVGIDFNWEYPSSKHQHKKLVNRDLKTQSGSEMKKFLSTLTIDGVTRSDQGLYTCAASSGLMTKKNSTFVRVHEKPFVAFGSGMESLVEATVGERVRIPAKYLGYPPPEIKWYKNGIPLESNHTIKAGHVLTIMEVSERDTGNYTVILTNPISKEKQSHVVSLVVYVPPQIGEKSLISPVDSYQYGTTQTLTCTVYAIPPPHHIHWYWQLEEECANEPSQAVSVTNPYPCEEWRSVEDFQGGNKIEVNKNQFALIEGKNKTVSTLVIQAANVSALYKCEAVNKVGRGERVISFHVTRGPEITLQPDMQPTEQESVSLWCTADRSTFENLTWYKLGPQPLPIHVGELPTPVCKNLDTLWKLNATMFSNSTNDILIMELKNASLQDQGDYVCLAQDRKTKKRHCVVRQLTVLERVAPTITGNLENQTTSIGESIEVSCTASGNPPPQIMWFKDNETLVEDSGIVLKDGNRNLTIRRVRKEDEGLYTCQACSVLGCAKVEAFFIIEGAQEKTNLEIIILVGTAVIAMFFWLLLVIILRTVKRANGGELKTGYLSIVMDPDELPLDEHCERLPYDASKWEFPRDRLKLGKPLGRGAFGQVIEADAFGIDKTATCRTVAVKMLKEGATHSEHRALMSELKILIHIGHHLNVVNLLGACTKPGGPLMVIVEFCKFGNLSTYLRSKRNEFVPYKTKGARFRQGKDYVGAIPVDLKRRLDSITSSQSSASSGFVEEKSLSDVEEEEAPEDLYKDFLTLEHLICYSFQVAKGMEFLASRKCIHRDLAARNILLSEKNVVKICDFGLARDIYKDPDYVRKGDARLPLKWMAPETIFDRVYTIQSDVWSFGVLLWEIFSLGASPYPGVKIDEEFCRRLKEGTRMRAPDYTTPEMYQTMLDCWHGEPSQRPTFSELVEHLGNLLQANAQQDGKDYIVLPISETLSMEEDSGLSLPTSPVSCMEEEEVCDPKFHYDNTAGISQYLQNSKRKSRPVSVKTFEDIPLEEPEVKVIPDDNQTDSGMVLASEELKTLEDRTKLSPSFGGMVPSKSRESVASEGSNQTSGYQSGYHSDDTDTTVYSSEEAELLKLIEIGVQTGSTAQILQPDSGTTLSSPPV
T1 sequence (P07949 29-1114): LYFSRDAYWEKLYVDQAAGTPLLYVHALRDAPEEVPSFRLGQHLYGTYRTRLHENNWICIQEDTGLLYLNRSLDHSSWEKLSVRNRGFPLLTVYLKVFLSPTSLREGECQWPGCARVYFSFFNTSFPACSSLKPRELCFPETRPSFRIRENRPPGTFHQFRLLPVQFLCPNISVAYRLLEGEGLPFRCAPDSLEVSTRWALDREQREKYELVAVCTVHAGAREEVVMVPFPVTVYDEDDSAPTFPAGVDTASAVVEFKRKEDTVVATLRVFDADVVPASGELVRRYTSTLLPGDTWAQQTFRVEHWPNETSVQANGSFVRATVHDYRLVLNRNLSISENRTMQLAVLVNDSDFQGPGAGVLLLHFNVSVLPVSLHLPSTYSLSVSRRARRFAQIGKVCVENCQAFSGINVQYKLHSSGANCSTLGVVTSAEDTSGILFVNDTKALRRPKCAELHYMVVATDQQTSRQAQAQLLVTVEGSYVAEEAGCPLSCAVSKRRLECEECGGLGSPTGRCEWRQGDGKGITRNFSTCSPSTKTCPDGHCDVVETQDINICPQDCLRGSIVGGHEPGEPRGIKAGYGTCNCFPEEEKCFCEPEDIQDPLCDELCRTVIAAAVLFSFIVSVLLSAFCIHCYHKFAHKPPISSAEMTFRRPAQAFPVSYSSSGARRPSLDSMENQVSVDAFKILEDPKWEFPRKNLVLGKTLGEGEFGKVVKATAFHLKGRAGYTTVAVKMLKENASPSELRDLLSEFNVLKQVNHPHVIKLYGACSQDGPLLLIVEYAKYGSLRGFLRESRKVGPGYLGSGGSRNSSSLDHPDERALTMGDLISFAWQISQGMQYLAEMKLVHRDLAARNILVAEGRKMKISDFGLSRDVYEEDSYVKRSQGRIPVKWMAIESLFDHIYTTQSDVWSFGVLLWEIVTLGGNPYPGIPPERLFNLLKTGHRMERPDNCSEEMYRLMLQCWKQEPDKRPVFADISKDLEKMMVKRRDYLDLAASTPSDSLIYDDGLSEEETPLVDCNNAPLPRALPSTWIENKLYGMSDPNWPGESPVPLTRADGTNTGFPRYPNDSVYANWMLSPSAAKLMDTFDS

With `COc1ncc(CN2C3CC2CN(c2ccc(-c4cc(C#C[C@@H](C)O)cn5ncc(C#N)c45)cn2)C3)cc1F` [Embodiment 68, 4-(6-(6-((5-Fluoro-6-methoxypyridin-3-yl)methyl)-3,6-diazabicyclo[3.1.1]heptan-3-yl)pyridin-3-yl)-6-((R)-3-hydroxybut-1-yn-1-yl)pyrazolo[1,5-a]pyridine-3-carbonitrile], the pIC50 against RET kinase was 9.36. For the same molecule, at KDR kinase, the pIC50 is 7.72 and the “Ratio (KDR/RET)” value came out at 43. The pIC50 at Ba/F3 KIF5B-RET cells was 7.58. Further, in data set [1], the MRT came out at 3.47 h, the Cmax came to 1700 ng/mL, the AUC(0-t) amounted to 7210 ng·h/mL and the AUC(0-inf) came out at 7220 ng·h/mL. Also, in data set [1], the half-life is 1.73 h and the Tmax came out at 0.5 h.
As to `COc1ccc(CN2C3CC2CN(c2ccc(-c4cc(C#CC5(O)CCOCC5)cn5ncc(C#N)c45)cn2)C3)cn1` [Embodiment 78, 6-((4-Hydroxytetrahydro-2H-pyran-4-yl)ethynyl)-4-(6-(6-((6-methoxypyridin-3-yl)methyl)-3,6-diazabicyclo[3.1.1]heptan-3-yl)pyridin-3-yl)pyrazolo[1,5-a]pyridine-3-carbonitrile], the pIC50 was 7.86 in data set [2] and 7.81 on Ba/F3 KIF5B-RET cells.
For the molecule `CC(C)(N)C#Cc1cc(-c2ccc(N3CCC(C)(NC(=O)c4ncccc4Cl)CC3)nc2)c2c(C#N)cnn2c1` [Embodiment 86, N-(1-(5-(6-(3-Amino-3-methylbut-1-yn-1-yl)-3-cyanopyrazolo[1,5-a]pyridin-4-yl)pyridin-2-yl)-4-methylpiperidin-4-yl)-3-chloropicolinamide], the pIC50 in data set [2] is 7.84; on Ba/F3 KIF5B-RET cells, 7.81.
The corresponding values for `COc1ncc(CN2C3CC2CN(c2ccc(-c4cc(OCC56CC(CO)(C5)C6)cn5ncc(C#N)c45)cn2)C3)cc1F` [Embodiment 71, 4-(6-(6-((5-Fluoro-6-methoxypyridin-3-yl)methyl)-3,6-diazabicyclo[3.1.1]heptan-3-yl)pyridin-3-yl)-6-((3-(hydroxymethyl)bicyclo[1.1.1]pentan-1-yl)methoxy)pyrazolo[1,5-a]pyridine-3-carbonitrile] are 8.06 and 8.25.
Taken in the same sequence, the figures for `COCC(C)(O)C#Cc1cc(-c2ccc(N3CC4CC(C3)N4Cc3ccc(OC)nc3)nc2)c2c(C#N)cnn2c1` (stereo not shown) [Embodiment 75, 6-(3-Hydroxy-4-methoxy-3-methylbut-1-yn-1-yl)-4-(6-(6-((6-methoxypyridin-3-yl)methyl)-3,6-diazabicyclo[3.1.1]heptan-3-yl)pyridin-3-yl)pyrazolo[1,5-a]pyridine-3-carbonitrile] were 7.61 and 7.46.
The corresponding values for `COc1ccc(CN2C3CC2CN(c2ccc(-c4cc(OCC56CC(CO)(C5)C6)cn5ncc(C#N)c45)cn2)C3)cn1` [Embodiment 45, 6-((3-(Hydroxymethyl)bicyclo[1.1.1]pentan-1-yl)methoxy)-4-(6-(6-((6-methoxypyridin-3-yl)methyl)-3,6-diazabicyclo[3.1.1]heptan-3-yl)pyridin-3-yl)pyrazolo[1,5-a]pyridine-3-carbonitrile] are 8.04 and 8.15.
As to `COc1ncc(CN2C3CC2CN(c2ccc(-c4cc(C#CC5(O)CCOCC5)cn5ncc(C#N)c45)cn2)C3)cc1F` [Embodiment 79, 4-(6-(6-((5-Fluoro-6-methoxypyridin-3-yl)methyl)-3,6-diazabicyclo[3.1.1]heptan-3-yl)pyridin-3-yl)-6-((4-hydroxytetrahydro-2H-pyran-4-yl)ethynyl)pyrazolo[1,5-a]pyridine-3-carbonitrile], the values for the pIC50 (in data set [2]; at Ba/F3 KIF5B-RET cells) were 7.98 and 7.86, respectively.
On to `[2H]C([2H])([2H])Oc1ccc(CN2C3CC2CN(c2ccc(-c4cc(C#CC(C)(C)O)cn5ncc(C#N)c45)cn2)C3)cn1` [Embodiment 25, 6-(3-Hydroxy-3-methylbut-1-yn-1-yl)-4-(6-(6-((6-(methoxy-d3)pyridin-3-yl)methyl)-3,6-diazabicyclo[3.1.1]heptan-3-yl)pyridin-3-yl)pyrazolo[1,5-a]pyridine-3-carbonitrile], for which the figures for the pIC50 (in data set [2]; on Ba/F3 KIF5B-RET cells) were 7.82 and 7.87, respectively.
Taken in the same sequence, the figures for `COc1ccc(CN2C3CC2CN(c2ccc(-c4cc(C#CC5(O)CCC5)cn5ncc(C#N)c45)cn2)C3)cn1` [Embodiment 82, 6-((1-Hydroxycyclobutyl)ethynyl)-4-(6-(6-((6-methoxypyridin-3-yl)methyl)-3,6-diazabicyclo[3.1.1]heptan-3-yl)pyridin-3-yl)pyrazolo[1,5-a]pyridine-3-carbonitrile] were 7.75 and 7.66.
The corresponding values for `COc1ncc(CN2C3CC2CN(c2ccc(-c4cc(N5CC(C)(O)C5)cn5ncc(C#N)c45)cn2)C3)cc1F` [Embodiment 73, 4-(6-(6-((5-Fluoro-6-methoxypyridin-3-yl)methyl)-3,6-diazabicyclo[3.1.1]heptan-3-yl)pyridin-3-yl)-6-(3-hydroxy-3-methylazetidin-1-yl)pyrazolo[1,5-a]pyridine-3-carbonitrile] are 8.23 and 7.92.
Taken in the same sequence, the figures for `Cc1ccc(F)cc1C(=O)NC1(C)CCN(c2ccc(-c3cc(C#CC(C)(C)N)cn4ncc(C#N)c34)cn2)CC1` [Embodiment 87, N-(1-(5-(6-(3-amino-3-methylbut-1-yn-1-yl)-3-cyanopyrazolo[1,5-a]pyridin-4-yl)pyridin-2-yl)-4-methylpiperidin-4-yl)-5-fluoro-2-methylbenzamide] were 7.63 and 7.73.
The molecule `COc1ccc(CN2C3CC2CN(c2ccc(-c4cc(OCC5(C#N)CCOCC5)cn5ncc(C#N)c45)cn2)C3)cn1` [Embodiment 59, 6-((4-Cyanotetrahydro-2H-pyran-4-yl)methoxy)-4-(6-(6-((6-methoxypyridin-3-yl)methyl)-3,6-diazabicyclo[3.1.1]heptan-3-yl)pyridin-3-yl)pyrazolo[1,5-a]pyridine-3-carbonitrile] had a pIC50 on RET kinase of 9.24. In addition, at KDR kinase, the pIC50 is 6.74 and the “Ratio (KDR/RET)” value was 317. The pIC50 at Ba/F3 KIF5B-RET cells was 7.47. Further, in data set [1], the MRT is 4.27 h, the Cmax amounted to 1330 ng/mL, the AUC(0-t) was 7340 ng·h/mL and the AUC(0-inf) worked out at 7370 ng·h/mL. Besides, in data set [1], the half-life is 2.34 h and the Tmax was determined as 0.5 h.

As a reminder, the pIC50 is the negative decadic logarithm of the IC50, by convention in mol/L. Usually MRT stands for a mean duration of stay, worked out from the concentration-time curve. For orientation: Tmax means the time at which the peak concentration occurs.
